Assay results taken from ChEMBL document CHEMBL3244349, “5,6,7,8-Tetrahydroguinolines. 4. Antiulcer and antisecretory activity of 5,6,7,8-tetrahydroquinolinenitriles and -thioamides” (1977).
Active and inactive are the calls of the source. No cut-off for these calls is given here.

Tests used:
Rattus norvegicus [1] = assay: Antisecretory activity in four-hours pylorus-ligated Sprague-Dawley rat assessed as inhibition of basal gastric secretion at 30 mg/kg administered intraduodenally; assay type: functional; settings: Stomach; for inhibition in vivo at 30 mg/kg: 4 h, route intraduodenal
Rattus norvegicus [2] = assay: Antiulcer activity in po dosed Sprague-Dawley rat assessed as dose required to inhibition of cold-restraint induced gastric erosions after 3 hrs; assay type: functional, Stomach
Rattus norvegicus [3] = assay: Antisecretory activity in four-hours pylorus-ligated Sprague-Dawley rat assessed as inhibition of basal gastric secretion at 10 mg/kg administered intraduodenally; assay type: functional, organism-based; set-up: dose 10 mg/kg; settings: Stomach

SMILES | inhibition in vivo at 30 mg/kg (Rattus norvegicus [1]) [%] | Effective oral dose inhibiting gastric erosions (Rattus norvegicus [2]) [mg/kg] | inhibition (Rattus norvegicus [1]) | inhibition (Rattus norvegicus [3])
CCCCc1ccc2c(n1)C(C(N)=S)CCC2 (centres undefined) | < 70 | 100 | – | –
N#CC1CCCc2cccnc21 (centres undefined) | < 70 | – | – | –
CNC(=S)C1CCCc2cc3ccccc3nc21 (centres undefined) | < 10 | – | – | –
CC(C)(C)c1ccc2c(n1)C(C(N)=S)CCC2 (centres undefined) | – | 30 | inactive | –
CNC(=S)C1(C(=S)NC)CCc2cc(C)cnc21 | – | 100 | inactive | –
Cc1cc2c([n+]([O-])c1)C(C(N)=S)CCC2 (centres undefined) | – | 100 | inactive | –
NC(=S)C1CCCc2c1ncc1c2CCCC1 (centres undefined) | < 70 | 30 | – | –
Cc1cnc2c(c1)CCCC2C(=S)Nc1ccccc1 (centres undefined) | – | 100 | inactive | –
Cc1cc2c([n+]([O-])c1)C(C#N)CCC2 (centres undefined) | – | 100 | inactive | –
Cc1ccc2c(n1)C(C(N)=S)CCC2 (centres undefined) | – | 10 | – | Active
CNC(=S)C1(C(=S)NC)CCCc2cccnc21.Cl | – | 100 | inactive | –
Cl.NC(=S)C1CCCc2cc3c(nc21)CCC3 (centres undefined) | < 70 | 100 | – | –
CC1CNC2C(CCCC2C(N)=S)C1 (centres undefined) | – | – | inactive | –
Cc1cnc2c(c1)CCCC2C1=NCCCN1.Cl (centres undefined) | – | 100 | inactive | –
NC(=S)Cc1ccc2c(n1)CCCC2 | – | 30 | inactive | –
NC(=S)c1cccc2cccnc12 | – | – | – | Active
Cc1cnc2c(c1)CCCC2c1nc(C)cs1.Cl (centres undefined) | – | 100 | inactive | –
Cc1cc(C)c2c(n1)C(C(N)=S)CCC2 (centres undefined) | < 70 | – | – | –
CNC(=S)C1CCCc2cccnc21.Cl (centres undefined) | – | 3 | – | Active
Cc1cnc2c(c1)CCCC2(C)C(N)=S.Cl (centres undefined) | – | 100 | inactive | –
CCCCNC(=S)C1CCCc2cc(C)cnc21.Cl (centres undefined) | < 70 | 100 | – | –
Cl.NC(=S)C1CCCc2ccc(-c3ccccc3)nc21 (centres undefined) | – | 30 | inactive | –
Cl.NC(=S)C1CCCc2cccnc21 (centres undefined) | – | 3 | – | Active
Cc1cnc2c(c1)CCCC2C(N)=O (centres undefined) | – | 100 | – | –
Cc1cnc2c(c1)CC(C)CC2C(N)=S.Cl (centres undefined) | > 70 | 10 | – | –
Cc1cnc2c(c1)CCCC2C(=S)NCc1ccccc1.Cl (centres undefined) | – | 100 | inactive | –

SMILES | inhibition in vivo at 30 mg/kg (Rattus norvegicus [1]) [%] | Effective oral dose inhibiting gastric erosions (Rattus norvegicus [2]) [mg/kg] | inhibition (Rattus norvegicus [1]) | inhibition (Rattus norvegicus [3])
CNC(=S)C1CCCc2cc(C)cnc21 (centres undefined) | < 10 | 30 | – | –
CNC(=S)C1(OC)CCCc2cc(C)cnc21 (centres undefined) | – | – | inactive | –
Cc1cnc2c(c1)CCCC2C(=S)N(C)C (centres undefined) | – | 100 | inactive | –
CC(=O)OC1(C(N)=S)CCCc2cc(C)cnc21 (centres undefined) | – | – | inactive | –
NC(=S)C1CCCc2cc3c(nc21)CCCCC3 (centres undefined) | < 70 | 30 | – | –
Cc1cnc2c(c1)C(C)CCC2C(N)=S.Cl (centres undefined) | – | 30 | – | Active
Cc1cnc2c(c1)CCCC2C(N)=S.Cl (centres undefined) [TIQUINAMIDE HYDROCHLORIDE] | – | 10 | – | Active
Cc1cc(-c2ccccc2)c2c(n1)C(C(N)=S)CCC2 (centres undefined) | – | – | inactive | –
CNC(=S)C1CCCc2c1ncc1c2CCCC1 (centres undefined) | – | 100 | inactive | –
Cc1ccnc2c1CCCC2C(N)=S.Cl (centres undefined) | – | 30 | – | Active
Cl.NC(=S)C1CCc2cc3c(nc21)CCC3 (centres undefined) | < 70 | 100 | – | –
Cc1cnc2c(c1)CCCC2C1=NCCN1.Cl (centres undefined) | – | 100 | inactive | –
Cc1cnc2c(c1)CCC2C(N)=S.Cl (centres undefined) | – | 30 | inactive | –
NC(=S)c1cccc2c1NCCC2 | – | – | inactive | –
CCc1ccc2c(n1)C(C(N)=S)CCC2 (centres undefined) | < 70 | – | – | –
Cl.NC(=S)C1CCCCc2cc3c(nc21)CCCCC3 (centres undefined) | – | 100 | inactive | –
Cc1cnc2c(c1C)CCCC2C(N)=S (centres undefined) | > 70 | – | – | –
NC(=O)C1CCCc2ccc(-c3ccccc3)nc21 (centres undefined) | – | 100 | – | –
NC(=S)C1CCCc2cc3c(nc21)CCCC3 (centres undefined) | < 70 | 100 | – | –
CNC(=S)C1(C(=S)NC)CCc2cc3ccccc3nc21.Cl | – | 100 | inactive | –
Cc1cnc2c(c1)CCC(C)(C)C2C(N)=S.Cl (centres undefined) | – | 100 | inactive | –
Cc1cnc2c(c1)CCCC2C#N.Cl (centres undefined) | < 70 | 100 | – | –
Cl.NC(=S)C1CCCc2cc3ccccc3nc21 (centres undefined) | – | 30 | inactive | –
Cc1cnc2c(c1)CCCC2C(=S)NCCCc1ccccc1.Cl (centres undefined) | – | 100 | inactive | –
N#CC1CCCc2ccc(-c3ccccc3)nc21 (centres undefined) | – | 100 | inactive | –
